According to patent US8962608B2, “Cycloalkylnitrile pyrazole carboxamides as janus kinase inhibitors” (Merck Sharp & Dohme Corp., priority 2011, dated 2015):

Key:
[1] = molecular target: JAK1 (recombinant purified GST-tagged catalytic domain) (Homo sapiens (Human), UniProt P23458); test: biochemical;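 also: biochemical assay with HTRF read-out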
[2] = molecular target: JAK2 (recombinant purified GST-tagged catalytic domain) (Homo sapiens (Human), UniProt O60674); test: biochemical;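 also: biochemical JAK kinase assay with HTRF detection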
Sequence of JAK2 (recombinant purified GST-tagged catalytic domain) (O60674 849-1124): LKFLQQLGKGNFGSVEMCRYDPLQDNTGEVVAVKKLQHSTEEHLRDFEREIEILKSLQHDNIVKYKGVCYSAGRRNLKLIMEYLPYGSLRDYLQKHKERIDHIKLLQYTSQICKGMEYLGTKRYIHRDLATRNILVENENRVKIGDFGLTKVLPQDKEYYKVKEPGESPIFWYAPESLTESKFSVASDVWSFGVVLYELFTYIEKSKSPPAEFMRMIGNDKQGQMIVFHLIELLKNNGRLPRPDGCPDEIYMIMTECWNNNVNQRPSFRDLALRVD

Sequence of JAK1 (recombinant purified GST-tagged catalytic domain) (P23458 875-1153): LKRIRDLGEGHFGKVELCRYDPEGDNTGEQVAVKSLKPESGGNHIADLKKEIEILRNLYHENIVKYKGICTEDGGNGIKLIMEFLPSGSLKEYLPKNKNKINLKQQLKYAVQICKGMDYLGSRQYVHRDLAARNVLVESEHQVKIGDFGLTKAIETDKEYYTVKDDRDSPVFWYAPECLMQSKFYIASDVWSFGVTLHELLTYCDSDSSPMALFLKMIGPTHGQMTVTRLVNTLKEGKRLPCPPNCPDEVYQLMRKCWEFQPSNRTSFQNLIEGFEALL

IC50 [1] | IC50 [2] | SMILES
0.012 µM | 0.254 µM | CN(C)[C@@H]1CC[C@H](n2cc(C(N)=O)c(Nc3ccnc(F)c3)n2)[C@@H](C#N)C1 (single isomer, unassigned) [Example 28-127, 1-[(1S,2S,4R or 1R,2R,4S)-2-cyano-4-(dimethylamino)cyclohexyl]-3-[(2-fluoropyridin-4-yl)amino]-1H-pyrazole-4-carboxamide]
0.002 µM | 0.025 µM | N#C[C@H]1CCCC[C@@H]1n1cc(C(N)=O)c(Nc2ccc(Cl)cc2)n1 (racemic) [Example 17-104, 3-[(4-chlorophenyl)amino]-1-[(1S,2S and 1R,2R)-2-cyanocyclohexyl]-1H-pyrazole-4-carboxamide]
0.012 µM | 0.247 µM | N#C[C@@H]1CC(CN)CCC1n1cc(C(N)=O)c(Nc2ccc(F)cc2)n1 (mixture of isomers) [Example 9, 1-((1R,2R and 1S,2S)-4-(Aminomethyl)-2-cyanocyclohexyl)-3-((4-fluorophenyl)amino)-1H-pyrazole-4-carboxamide]
0.006 µM | 0.073 µM | Cn1cc(-c2cncc(Nc3nn(C4CCCC[C@@H]4C#N)cc3C(N)=O)c2)cn1 (single isomer, unassigned) [Example 21-1, 1-[(1S,2S or 1R,2R)-2-Cyanocyclohexyl]-3-{[5-(1-methyl-1H-pyrazol-4-yl)pyridin-3-yl]amino}-1H-pyrazole-4-carboxamide]
0.00045 µM | 0.005 µM | COC1CN(C2CC[C@H](n3cc(C(N)=O)c(Nc4ccc(S(=O)(=O)C(F)(F)F)cc4)n3)[C@@H](C#N)C2)C1 (single isomer, unassigned) [Example 28-147, 1-[(1S,2S or 1R,2R)-2-cyano-4-(3-methoxyazetidin-1-yl)cyclohexyl]-3-({4-[(trifluoro-methyl)sulfonyl]phenyl}amino)-1H-pyrazole-4-carboxamide]
0.0009 µM | 0.008 µM | CS(=O)(=O)N[C@@H]1CC[C@H](n2cc(C(N)=O)c(Nc3ccc(Cl)cc3)n2)[C@@H](C#N)C1 (racemic) [Example 38-3, 3-[(4-chlorophenyl)amino]-1-{(1S,2S,4R and 1R,2R,4S)-2-cyano-4-[(methylsulfonyl)amino]cyclohexyl}-1H-pyrazole-4-carboxamide]
0.00015 µM | 0.003 µM | CC1(O)CN([C@H]2CC[C@H](n3cc(C(N)=O)c(Nc4ccc(C(F)(F)F)cc4)n3)[C@@H](C#N)C2)C1 (single isomer, unassigned) [Example 28-198, 1-[(1S,2S,4S or 1R,2R,4R)-2-cyano-4-(3-hydroxy-3-methylazetidin-1-yl)cyclohexyl]-3-{[4-(trifluoromethyl)phenyl]amino}-1H-pyrazole-4-carboxamide]
0.001 µM | 0.085 µM | C[C@H](N[C@H]1CC[C@H](n2cc(C(N)=O)c(Nc3ccc(Cl)cc3)n2)[C@@H](C#N)C1)C1CC1 (single isomer, unassigned) [Example 28-119, 3-[(4-chlorophenyl)amino]-1-[(1S,2S,4S or 1R,2R,4R)-2-cyano-4-{[(1R)-1-cyclopropylethyl]amino}cyclo-hexyl]-1H-pyrazole-4-carboxamide]
0.041 µM | 0.255 µM | N#C[C@@H]1CCCC[C@H]1n1cc(C(N)=O)c(Nc2ccc(C(F)F)nc2)n1 (single isomer, unassigned) [Example 17-55, 1-[(1R,2R or 1S,2S)-2-cyanocyclohexyl]-3-{[6-(difluoromethyl)pyridin-3-yl]amino}-1H-pyrazole-4-carboxamide]
0.05 µM | 0.26 µM | N#C[C@H]1CCCC[C@@H]1n1cc(C(N)=O)c(Nc2ccc(C(F)(F)F)nc2)n1 (single isomer, unassigned) [Example 17-109, 1-[(1S,2S or 1R,2R)-2-cyanocyclohexyl]-3-{[6-(trifluoromethyl)pyridin-3-yl]amino}-1H-pyrazole-4-carboxamide]
0.006 µM | 0.031 µM | N#C[C@H]1CCCC[C@@H]1n1cc(C(N)=O)c(Nc2ccc(S(=O)(=O)Nc3ccc(C(F)(F)F)cc3)cc2)n1 (single isomer, unassigned) [Example 17-95, 1-[(1R,2R or 1S,2S)-2-cyanocyclohexyl]-3-[(4-{[4-(trifluoromethyl)phenyl]sulfamoyl}phenyl)amino]-1H-pyrazole-4-carboxamide]
0.003 µM | 0.051 µM | CNC(=O)O[C@H]1CCC(n2cc(C(N)=O)c(Nc3ccc(F)cc3)n2)[C@@H](C#N)C1 (mixture of isomers) [Example 34-9, (1S,3S,4S and 1R,3R,4R)-4-{4-carbamoyl-3-[(4-fluorophenyl)aminol-1H-pyrazol-1-yl}-3-cyanocyclohexyl methylcarbamate]
0.025 µM | 0.5 µM | N#C[C@H]1C[C@@H](C(=O)NC(C2CC2)C2CC2)CC[C@@H]1n1cc(C(N)=O)c(Nc2ccc(Cl)cc2)n1 (single isomer, unassigned) [Example 35-21, 3-[(4-chlorophenyl)amino]-1-{(1S,2S,4S or 1R,2R,4R)-2-cyano-4-[(dicyclopropylmethyl)carbamoyl]cyclohexyl}-1H-pyrazole-4-carboxamide]
0.001 µM | 0.041 µM | CC(C)(CO)N[C@H]1CCC(n2cc(C(N)=O)c(Nc3ccc(Cl)cc3)n2)[C@@H](C#N)C1 (single isomer, unassigned) [Example 28-210, 3-[(4-chlorophenyl)amino]-1-{(1S,2S,4S or 1R,2R,4R)-2-cyano-4-[(2-hydroxy-1,1-dimethylethyl)amino]cyclo-hexyl}-1H-pyrazole-4-carboxamide]
0.027 µM | 0.185 µM | N#C[C@H]1CC[C@@H](O)CC1n1cc(C(N)=O)c(Nc2ccccc2)n1 (mixture of isomers) [Example 2-13, 1-[(1S,2S,5R and 1R,2R,5S)-2-cyano-5-hydroxycyclohexyl]-3-(phenylamino)-1H-pyrazole-4-carboxamide]
0.423 µM | > 1.5 µM | COC(=O)C1CC[C@H](C#N)C(n2cc(C(N)=O)c(Nc3ccccc3)n2)C1 (mixture of isomers) [Example 2-4, methyl (3R,4R and 3S,4S)-3-[4-carbamoyl-3-(phenylamino)-1H-pyrazol-1-yl]-4-cyanocyclohexanecarboxylate]
0.0007 µM | 0.041 µM | N#C[C@H]1C[C@@H](N2CCC2)CC[C@@H]1n1cc(C(N)=O)c(Nc2ccc(Cl)cc2)n1 (single isomer, unassigned) [Example 28-100, 1-[(1S,2S,4S or 1R,2R,4R)-4-azetidin-1-yl-2-cyanocyclohexyl]-3-[(4-chlorophenyl)amino]-1H-pyrazole-4-carboxamide]
0.0005 µM | 0.001 µM | CC(=O)N1CCN(S(=O)(=O)c2ccc(Nc3nn([C@H]4CCCC[C@@H]4C#N)cc3C(N)=O)cc2)CC1 (single isomer, unassigned) [Example 17-89, 3-({4-[(4-acetylpiperazin-1-yl)sulfonyl]phenyl}amino)-1-[(1R,2R or 1S,2S)-2-cyanocyclohexyl]-1H-pyrazole-4-carboxamide]
0.001 µM | 0.005 µM | N#C[C@H]1CCCC[C@@H]1n1cc(C(N)=O)c(Nc2ccc(S(=O)(=O)C(F)(F)F)c(CO)c2)n1 (racemic) [Example 17-17, 1-[(1S,2S and 1R,2R)-2-cyanocyclohexyl]-3-({3-(hydroxymethyl)-4-[(trifluoromethyl)sulfonyl]phenyl}amino)-1H-pyrazole-4-carboxamide]
0.0009 µM | 0.023 µM | COCCN[C@H]1CCC(n2cc(C(N)=O)c(Nc3ccc(Cl)cc3)n2)[C@@H](C#N)C1 (single isomer, unassigned) [Example 28-236, 3-[(4-chlorophenyl)amino]-1-{(1S,2S,4S or 1R,2R,4R)-2-cyano-4-[(2-methoxyethyl)amino]cyclo-hexyl}-1H-pyrazole-4-carboxamide]
0.011 µM | 0.036 µM | N#Cc1ccc(Nc2nn([C@H]3CCCC[C@H]3C#N)cc2C(N)=O)cc1 (racemic) [Example 17-16, 1-[(1S,2R and 1R,2S)-2-cyanocyclohexyl]-3-[(4-cyanophenyl)amino]-1H-pyrazole-4-carboxamide]
0.001 µM | 0.006 µM | CN([C@H]1CC[C@H](n2cc(C(N)=O)c(Nc3ccc(Cl)cc3)n2)[C@@H](C#N)C1)S(C)(=O)=O (racemic) [Example 38-6, 3-[(4-chlorophenyl)amino]-1-{(1S,2S,4R and 1R,2R,4S)-2-cyano-4-[methyl(methylsulfonyl)amino]cyclohexyl}-1H-pyrazole-4-carboxamide]
0.26 µM | > 1.5 µM | N#C[C@H]1C[C@H](N(CC2CC2)CC2CC2)CC[C@@H]1n1cc(C(N)=O)c(Nc2ccc(C(F)(F)F)cc2)n1 (single isomer, unassigned) [Example 30-15, l-{(1S,2S,4R or 1R,2R,4S)-4-[bis(cyclopropylmethyl)amino]-2-cyanocyclohexyl}-3-{[4-(trifluoromethyl)phenyl]amino}-1H-pyrazole-4-carboxamide]
0.017 µM | 0.093 µM | N#C[C@H]1CCCC[C@@H]1n1cc(C(N)=O)c(Nc2ccc(Cl)c(Cl)c2)n1 (single isomer, unassigned) [Example 17-49, 1-[(1S,2S or 1R,2R)-2-cyanocyclohexyl]-3-[(3,4-dichlorophenyl)amino]-1H-pyrazole-4-carboxamide]
0.006 µM | 0.076 µM | N#C[C@@H]1C[C@H](OCC2CC2)CC[C@H]1n1cc(C(N)=O)c(Nc2ccnc(F)c2)n1 (single isomer, unassigned) [Example 26-2, 1-[(1R,2R,4R or 1S,2S,4S)-2-cyano-4-(cyclopropylmethoxy)cyclohexyl]-3-[(2-fluoropyridin-4-yl)amino]-1H-pyrazole-4-carboxamide]
0.069 µM | 0.15 µM | N#C[C@H]1C[C@H](OCC2CC2)CC[C@H]1n1cc(C(N)=O)c(Nc2ccnc(F)c2)n1 (single isomer, unassigned) [Example 26-3, 1-[(1R,2S,4R or 1S,2R,4S)-2-cyano-4-(cyclopropylmethoxy)cyclohexyl]-3-[(2-fluoropyridin-4-yl)amino]-1H-pyrazole-4-carboxamide]
